{"source": "patent US20260151457A1", "about": "“Peptides and Fragments for Treating Diabetes and Associated Metabolic Diseases” (Betavive Ltd., priority 2024, published 2026)", "key": {"NOD mice [1]": {"system": "NOD mice", "assay": "Incidence of spontaneous autoimmune type 1 diabetes in NOD mice treated with IGF-2", "format": "in vivo", "experimental": "Non-Obese Diabetic (NOD) mice are a polygenic model for spontaneous autoimmune type 1 diabetes (T1D). NOD mice have an elevated risk for development of autoimmune type 1 diabetes. Thus, NOD mice were used to determine whether treatment IGF-2 reduces spontaneous development of type 1 diabetes.\nIn this experiment, one group of NOD mice (right panel) was injected with 3000 μg/kg of IGF-2 on each of 76 consecutive days, and a second group of NOD mice (left panel) was injected with saline. […] More specifically, at the end of the 76 days of treatment, only two of the treated mice had developed high glucose levels.\nFIG. 30A depicts how many NOD mice have developed autoimmune type I diabetes during an initial 66 days of treatment with IGF-2, and at various intervals post-treatment. In this experiment, one group of NOD mice was injected with 3000 μg/kg of IGF-2 on each of 66 consecutive days, and a second group of NOD mice was injected with saline.\n(§1) In one exemplary experiment, NOD mice were treated with a 3000 μg/kg daily doses of IGF-2 for 150 days. ⅘ of the treated mice maintained normoglycemia compared to ¼ of the control mice. In another exemplary experiment, NOD mice were treated with a 3000 μg/kg daily dose of IGF-2 for 75 days with follow-up glucose measurements taken for an additional 90 days (during which IGF-2 was not administered). ⅝ of the treated mice maintained normoglycemia compared to 2/11 of the control mice. The average insulin secretion of the treated mice in both of these experiments was five times greater than the control mice."}, "C57BL/6 STZ mice": {"system": "C57BL/6 STZ mice", "assay": "Fasting blood glucose in STZ-induced diabetic C57BL/6 mice treated with IGF-2", "format": "in vivo", "conditions": "for Fasting glucose levels: individual mice per block", "experimental": "C57BL/6 mice male 8-10 weeks old, housed under conventional conditions and allowed laboratory chow and water ad libitum, were used in the experiments described below in Examples 3-4. Within each experiment, animals were matched by age and weight (20-24 g) and randomly divided into groups to receive different treatments. Diabetes was induced by one or more doses of streptozotocin (STZ).\nBriefly, animals received intraperitoneally (i.p.) 100 mg/kg (b.w.) STZ (Cayman Chemical, Ann Arbor, MI) dissolved in citrate buffer on pH 4.5 (this procedure was repeated if needed). Clinical diabetes was defined by hyperglycemia (blood glucose levels >300 mg/dl in fasted animals). Fasting blood glucose levels were measured three times per week and samples were taken from the tail tip after starvation for 6 hours throughout the experiment.\nFasting blood glucose levels (mg/dL) were determined using the Accu-Chek Performa glucometer (Roche Diagnostics, Mannheim, Germany). After approximately two weeks of stable hyperglycemia, C57BL/6 STZ mice received exogenous injections of recombinant human IGF-2 (0.3-12 mg/kg/day injection) intraperitoneally for 5-10 consecutive days. During post-treatment follow-up period and upon termination, mice were tested for: fasting glucose, body weight, glucose tolerance test (IPGTT), serum C-peptide level, serum insulin level, and full blood and histological analysis (CBC, Chemistry, Insulin IHC and H&E)."}, "STZ-treated mouse islets": {"system": "STZ-treated mouse islets", "assay": "Insulin secretion from STZ-treated mouse islets", "format": "cell-based", "conditions": "islets treated with 2.5 mM STZ; IGF-2 50 nM and 500 nM, GLP-1 100 nM and 1000 nM; 48 hours", "experimental": "Mouse islet cells were treated with 2.5 mM STZ and subsequently treated with either IGF-2 (FA) at 50 nM and 500 nM, or with GLP-1 at 100 nM and 1000 nM."}, "β-MIN6 cells": {"system": "β-MIN6 cells", "assay": "Cell count (proliferation) of β-MIN6 cells", "format": "cell-based, mouse", "conditions": "5 nM, 20 nM, 80 nM, 1 week treatment", "text": "β-MIN6 cells serve as an in vitro model of mouse pancreatic islets. β-MIN6 cells were used as an in vitro model to measure the effects of treatment with IGF-2."}, "db/db mice": {"system": "db/db mice", "assay": "Histopathology and immunohistochemistry of pancreas islet cells in db/db mice treated with IGF-2", "format": "in vivo", "experimental": "FIG. 27 provides results of histopathology and immunohistochemical studies showing the number of pancreas islet cells that test positive for insulin (left panel) and glucagon (right panel) in db/db mice. In this experiment, one group of db/db mice was injected with 12000 μg/kg of IGF-2 on each of 70 consecutive days, a second group of db/db mice was injected with saline, and a third group of db/db mice was a naïve control group. The mice were sacrificed for pathology 70 days after the end of the initial 70 day treatment.\nIn this experiment, one group of db/db mice (labeled X4) was injected with 12000 μg/kg of IGF-2 on each of 70 consecutive days, a second group of db/db mice (labeled X1) was injected with 3000 μg/kg of IGF-2 on each of 70 consecutive days, and a third group of db/db mice (labeled control) was injected with saline. The mice were sacrificed for pathology 70 days after the end of the initial 70 day treatment. […] The control panels show a positive stain for insulin, which increases in intensity in the 3000 μg/kg/day mice, and increases again in intensity in the 12,000 μg/kg/day mice."}, "NOD mice [2]": {"system": "NOD mice", "assay": "Serum insulin / insulin secretion in NOD mice treated with IGF-2", "format": "in vivo", "experimental": "FIG. 30B depicts the levels of serum insulin in NOD mice measured two weeks after a 66 day course of treatment using IGF-2. Mice that were treated with 3000 μg/kg/day of IGF-2 had serum insulin levels that were about 4-fold higher than the control mice.\nas §1"}, "STZ-treated mice": {"system": "STZ-treated mice", "assay": "Intraperitoneal glucose tolerance test on STZ-treated mice treated with IGF-2", "format": "in vivo", "experimental": "In this experiment, four STZ-treated mice were treated with 12,000 μg/kg/day of IGF-2 (four injections of 3000 μg/kg/day) 5 days and two mice were treated for 10 days. A glucose tolerance test was performed 50 days post-treatment with IGF-2 by challenging the treated mice with a 2 grams/kg dose of glucose and determining the blood glucose level over a 180 minute time course. The blood glucose curves of the treated mice were compared to results for a saline control, and normal (nondiabetic) obese and normal (nondiabetic) lean mice based on published literature (Jorgensen et al., J. Am Assoc. Lab. Animal Sci 2017 56 (1): 95-97)."}, "[3]": {"conditions": "average of four STZ mice, daily intraperitoneal 3000 μg/kg/day IGF-2"}}, "note": "“Also recorded” adds a separate entry of the source.", "data": [{"substance": "insulin-like growth factor 2 [IGF-2]", "values": [{"measurement": "Fraction of the treated mice that maintained normoglycemia", "setting": "NOD mice [1]; 3000 μg/kg daily for 75 days, follow-up for an additional 90 days", "value": "⅝"}, {"measurement": "Fraction of the treated mice that maintained normoglycemia", "setting": "NOD mice [1]; 3000 μg/kg daily for 150 days", "value": "⅘"}, {"measurement": "Incidence of spontaneous autoimmune type 1 diabetes", "setting": "NOD mice [1]; 3000 μg/kg on each of 66 consecutive days and post-treatment", "value": "significantly reduced"}, {"measurement": "Incidence of spontaneous autoimmune attack", "setting": "NOD mice [1]; 3000 μg/kg on each of 76 consecutive days", "value": "reduced dramatically"}, {"measurement": "Number of treated mice that had developed high glucose levels", "setting": "NOD mice [1]; at the end of the 76 days of treatment with 3000 μg/kg", "value": "two"}, {"measurement": "Hypoglycemia", "setting": "C57BL/6 STZ mice; 10:1 ratio of dosages, between 3000 μg and 300 μg", "value": "did not cause hypoglycemia"}, {"measurement": "Fasting glucose levels after the ten day course of injections ended", "setting": "C57BL/6 STZ mice; STZ mice F3 and F4, IGF-2 800 μg/kg/day", "value": "around 400"}, {"measurement": "Fasting glucose levels", "setting": "C57BL/6 STZ mice; STZ mice, IGF-2 300 μg/kg/day, initial plus ten additional doses", "value": "did not return to a normal range, and long-term results were not observed; also recorded: temporary drop in fasting glucose levels from days 10-25, but the long-term results were similar to the results for Mouse B5"}, {"measurement": "Fasting glucose levels", "setting": "C57BL/6 STZ mice; STZ mice, IGF-2 800 μg/kg/day, day 0 and ten more times within ten days", "value": "returned to a normal range during the ten-day course of treatment with IGF-2, and remained in the normal range until the end of the experiment; also recorded: returned to a normal range during the ten-day course of treatment with IGF-2, and remained in the normal range until STZ was provided again"}, {"measurement": "Blood glucose levels remaining (full or almost full resolution)", "setting": "C57BL/6 STZ mice; STZ mice, IGF-2 800 μg/kg/day, half the mice (FIGS. 5A, 5B)", "value": "~200", "unit": "mg/dL"}, {"measurement": "Blood glucose levels remaining (partial improvement)", "setting": "C57BL/6 STZ mice; STZ mice, IGF-2 800 μg/kg/day, the remaining mice (FIGS. 6A, 6B)", "value": "~400", "unit": "mg/dL"}, {"measurement": "Fasting glucose levels", "setting": "C57BL/6 STZ mice; STZ mice, IGF-2 3000 μg/kg/day, 10 day course", "value": "returned to a normal range during the ten-day course of treatment with IGF-2, and remained in the normal range until the end of the experiment; also recorded: returned to high levels after the 10 day course treatment with IGF-2 ended; also recorded: initially responded to treatment with a 3000 μg/kg/day dose of IGF-2 but were not permanently cured"}, {"measurement": "Long-term improvements in blood glucose levels", "setting": "C57BL/6 STZ mice; STZ mice, IGF-2 12,000 μg/kg daily on only 5 consecutive days", "value": "long-term improvements in blood glucose levels were not obtained"}, {"measurement": "Blood glucose level reached (normal range)", "setting": "C57BL/6 STZ mice; [3]", "value": "100 to 200", "unit": "mg/dL"}, {"measurement": "Time to reduce blood glucose to a normal range", "setting": "C57BL/6 STZ mice; [3]", "value": "3 to 5", "unit": "days"}, {"measurement": "Hypoglycemia", "setting": "C57BL/6 STZ mice; even when the IGF-2 dose was increased to 12,000 μg/kg/day", "value": "Hypoglycemia was never observed"}, {"measurement": "Time post treatment that normal blood glucose levels are maintained", "setting": "C57BL/6 STZ mice; four STZ mice, 10 day course at 3000 μg/kg/day, no additional doses", "value": "at least 300 days"}, {"measurement": "Insulin secretion", "setting": "STZ-treated mouse islets", "value": "increased in a dose dependent manner"}, {"measurement": "Cell count (cell proliferation)", "setting": "β-MIN6 cells", "value": "increases cell proliferation in a dose-dependent manner"}, {"measurement": "Increase in the number of insulin-positive cells", "setting": "db/db mice; 12000 μg/kg on 70 consecutive days, sacrificed 70 days after end of treatment", "value": "more than 50%"}, {"measurement": "Insulin positive cells (immunohistochemical staining)", "setting": "db/db mice; 3000 and 12000 μg/kg on 70 consecutive days", "value": "increase in insulin positive cells in a dose-dependent manner"}, {"measurement": "Serum insulin levels relative to the control mice", "setting": "NOD mice [2]; 3000 μg/kg/day for 66 days, measured two weeks after treatment", "value": "about 4 fold"}, {"measurement": "Average insulin secretion of the treated mice relative to the control mice", "setting": "NOD mice [2]; both experiments (150 days; 75 days plus 90 days follow-up)", "value": "five"}, {"measurement": "Response to the glucose tolerance test (permanently cured mice)", "setting": "STZ-treated mice; 12,000 μg/kg/day for 5 or 10 days, test 50 days post-treatment, 2 grams/kg glucose, 180 minutes", "value": "fell between the glucose tolerance results from the literature for non-diabetic obese mice and non-diabetic lean mice"}, {"measurement": "Glucose levels in the glucose tolerance test (Mouse 01, not permanently cured)", "setting": "STZ-treated mice; 12,000 μg/kg/day, test 50 days post-treatment, 2 grams/kg glucose", "value": "higher than the normal obese mouse"}, {"measurement": "Number of IGF-2-treated mice permanently cured", "setting": "STZ-treated mice; six STZ mice treated with 12,000 μg/kg/day, four for 5 days and two for 10 days", "value": "Five"}]}]}
